This is an account of results in publication PMC8805583, “Discovery of Herbacetin as a Novel SGK1 Inhibitor to Alleviate Myocardial Hypertrophy” (Advanced Science, 2021).

One assay deals with T1, SGK1 (Homo sapiens, UniProt O00141).
T1 sequence (O00141 1-431): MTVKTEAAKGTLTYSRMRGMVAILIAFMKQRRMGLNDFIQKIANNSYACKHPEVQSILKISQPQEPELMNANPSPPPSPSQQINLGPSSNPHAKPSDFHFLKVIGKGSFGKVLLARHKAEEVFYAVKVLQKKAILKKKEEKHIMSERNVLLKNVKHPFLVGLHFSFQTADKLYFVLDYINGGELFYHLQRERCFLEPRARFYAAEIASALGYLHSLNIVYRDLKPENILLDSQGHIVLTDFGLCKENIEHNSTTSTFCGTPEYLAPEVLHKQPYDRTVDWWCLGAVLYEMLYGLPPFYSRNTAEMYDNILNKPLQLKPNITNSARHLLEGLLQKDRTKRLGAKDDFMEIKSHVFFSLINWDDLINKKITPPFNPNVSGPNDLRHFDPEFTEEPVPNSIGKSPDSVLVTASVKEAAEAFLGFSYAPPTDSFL
Nature of the assay: Mass spectrometry-based SGK1 kinase inhibitory assay (LC/MS of phosphorylated […]). The class given is biochemical. Conditions: MS-based kinase inhibitory assay. The source says:
To identify active compounds with SGK1 inhibitory activity from Ext.R, a novel mass‐spectrometry based kinase inhibitory assay was developed. A polypeptide sequence ([…], m/z: 618.6) derived from glycogen Synthase Kinase‐3(GSK3), a known substrate of SGK1, was optimized and synthesized. We subsequently used liquid chromatography coupled with mass spectrometry (LC/MS) to detect and quantify its phosphorylation level ([…](p)FAE, m/z:658.7) (Figure 3A).^[ [26] ^] Basal level SGK1 was supplemented to each well, and the peak area of phosphorylation was measured in the presence or absence of testing compounds. […] After investigating the major chemical constituents in Ext.R (Table S3, Supporting Information), a set of compounds in Ext.R were subsequently screened for their impacts on SGK1 activity. […] The direct interaction between HBT and SGK1 was further verified by temperature‐ and dose‐dependent cellular thermal shift assays (Figure 3E,F). We further performed a direct binding assay of HBT to SGK1 by KINOMEscan assay (Eurofins Discovery).
Synthesis of […] was prepared by Shanghai Sangong Biotech. In order to ensure the phosphorylation reaction of SGK1, SGK1 (0.25 µg mL^−1) was added to kinase buffer (25 mmol Tris [pH 7.5], 5 mmol β‐glycerolphosphate, 2 mmol DTT, 10 mmol MgCl2) with the substrate peptide […] (25 µmol) and ATP (200 µmol) and incubated for 1 h at 30 °C in the presence or absence of inhibitors. A concentration‐dependent assay for SGK1 at different concentrations (0.05, 0.1, 0.2, 0.25, and 0.3 µg mL^−1) was performed. Reactions were terminated by the addition of methyl alcohol with 0.1% trifluoroacetic acid (TFA), and supernatants were analyzed by the Agilent 1100 LC system (Agilent Technologies, USA) and a 1946D single quadrupole mass spectrometer. The acquisition parameters for LC/MS were set for positive ionization mode and selected ion monitoring (SIM) m/z values of 618.6 and 658.7 for the substrate peptide and product peptide respectively. Chromatographic separation was performed by a reversed‐phase ZORBAX SB‐C18 analytical column. The mobile phase included water containing 0.1% v/v TFA (A) and acetonitrile containing 0.1% v/v TFA (B). The flow rate was 0.6 mL min^−1. A gradient program was carried out according to the following profile: 0 min, 13% B; 15 min, 28% B; 16 min, 100% B. The constituents of Ext.R were screened by the assay to evaluate their inhibitory effects on SGK1 activity. A minimum of three replicates of each sample were analyzed and averaged together. Inhibition of SGK1 was calculated by the following equation (1) Inhibitionrate%=PC−PS/PC P C and P S represented the peak area of product peptide in the control group without test compounds and the tested sample group with various test compounds, respectively.

Assay [1] deals with SGK1(S422D)-transfected primary cardiomyocytes. Nature of the assay: S422D SGK1-transfected primary cardiac myocytes (western blot, confocal microscopy). The class given is cell-based, rat. As for the experimental part: Figure 5 HBT blocks induction of cardiac hypertrophic responses and the SGK1/FoxO1 signaling pathway. A) Cardiomyocytes were treated with 50 µmol PE in the presence or absence of Ext.R (50 µg mL^−1) or HBT (50 µmol) for 48 h. Cardiomyocytes were identified by cytoskeleton staining through the binding of phalloidin to F‐actin (green). Images were acquired using an ImageXpress Micro Confocal High‐Content Imaging System (Molecular Devices), with a 40 × PlanFluor objective. Relative cell area was quantified by the analysis module of […] High‐Content Image and Analysis Software (Molecular Devices). Control group (Ctrl), PE group, PE plus Ext.R group (Ext.R), and PE plus HBT group (HBT), n = 3 independent experiments, Scale bar, 50 µm. B,C) Quantification of relative ANP and BNP in cardiomyocytes treated with Ext.R or HBT, n = 3 independent experiments. D) Western blot analysis of related proteins in PE‐treated cardiomyocytes, n = 3–4 independent experiments. E) Co‐IP and western blot analysis of SGK1‐FoxO1 interaction in cardiomyocytes, n = 3 independent experiments. F) Western blot analysis of related proteins in nontransfected (control adenovirus) and in ^S422DSGK1‐transfected primary cardiac myocytes treated with DMSO as solvent control (^S422DSGK1‐transf. group) or HBT (50 µmol, ^S422DSGK1‐transf.+HBT group), n = 3 independent experiments. G) Confocal microscopy of nuclear translocation of FoxO1 in nontransfected (control adenovirus), ^S422DSGK1‐transfected cardiomyocytes treated with HBT (50 µmol) or DMSO as solvent control. Green signal represents FoxO1 and white arrow represents the translocation of FoxO1 to nuclei, n = 3 independent experiments, Scale bar, 25 µm. All data were analyzed using one‐way ANOVA and data were expressed as means ± SD, ##p < 0.01 versus Ctrl group, *p < 0.05, **p < 0.01 versus PE group or ^S422DSGK1‐transf. group.
In the present study, we studied HBT's effect on protein binding between SGK1 and FoxO1 by coimmunoprecipitation (Figure 5E). […] Nevertheless, as previously reported,^[ [30] ^] […] Supportively, after transfection with the SGK1(S422D) plasmid, we consistently detected increased cytoplasmic signal of FoxO1 compared to nontransfected cells in which the majority of FoxO1 signal was distributed in the nucleus.
SGK1 mutant plasmids and adenovirus were constructed by Vigene Bioscience. All the transfection assays were performed using Lipofectamine 2000 according to the manufacturer's protocol. Adenovirus (Ad‐^S422DSGK1) was diluted in DMEM and administered at a dose of 100 MOI in primary cardiomyocytes.

For `O=c1c(O)c(-c2ccc(O)cc2)oc2c(O)c(O)cc(O)c12` [HBT, herbacetin], the midpoint of inhibition against SGK1, the IC50, lay at 752 nM. Besides, the “expression of STIM1” value in assay [1] (HBT 50 µmol) is “moderately inhibited”. For the same molecule, in assay [1] (SGK1(S422D) expression, HBT 50 µmol), the FoxO1 phosphorylation entry was “reverse the alternation”. Further, in assay [1] (SGK1(S422D) transfection, HBT 50 µmol, confocal microscopy), the FoxO1 subcellular localization result is “restrain FoxO1 in the nucleus”. Besides, in assay [1] (constitutively expressed SGK1, HBT 50 µmol), the “level of Orai1” value is “significantly inhibited”. For the same molecule, in assay [1] (continuously-activated form of SGK1, HBT 50 μmol), the “phosphorylation of NDRG1” value is recorded as “reduce the phosphorylation”.
